Data on 2 compounds can be found in paper PMC12698583, “Efficacy of sulfonamides targeting malic enzyme in an animal model of Chagas disease” (Frontiers in Pharmacology, 2025).

In data set [1] the target is T. cruzi malic enzyme (TcME) (Trypanosoma cruzi, UniProt Q4DJ68). Nature of the data set: Malic enzyme (TcME) inhibition assay, diaphorase/resazurin coupled. Type of data set: biochemical. The conditions noted are these: concentration necessary to inhibit 50% of T. cruzi Malic enzyme enzymatic activity. The procedure: The TcME inhibition assay was performed as previously described, with minor modifications ([Mercaldi et al., 2021]). Briefly, a coupled assay with the enzyme diaphorase and resorufin fluorescence (Ex 545 nm/Em 600 nm) was recorded every 30 s for 6 min in a CLARIOstar plate reader (BMG LabTech). The final concentrations of reagents in the assay were: 0.02 mM NADP+, 0.4 mM L-aspartate, 0.45 nM TcMEc, 1 U/mL diaphorase, and 10 μM resazurin, all in 50 mM Tris-HCl buffer containing 50 mM NaCl and 2 mM MnCl2 at pH 7.5. The reaction was initiated by adding 1.32 mM L-malate.
On the technique in general: Alamar Blue is a resazurin reagent that responds to reducing activity.

Data set [2] deals with T. cruzi Dm28c strain intracellular form infecting H9c2 rat cardiomyoblasts. Nature of the data set: T. cruzi intracellular image-based assay. Type of data set: cell-based, Trypanosoma cruzi. The conditions noted are these: for SI: Selectivity index; for EC50: host cells infected by T. cruzi amastigotes, 72 h treatment. Here is the method:
Tested compounds were dissolved and serially diluted in dimethylsulfoxide (DMSO) using a half-log dilution across six concentrations. Intermediate plates were prepared by diluting compounds 1:25 in DMEM (Dulbecco’s Modified Eagle Medium) with 10% FBS (Fetal Bovine Serum). The assay was based on [Fredo Naciuk et al. (2020)], with minor modifications. Briefly, T. cruzi trypomastigotes (from LLC-MK2 cultures, 6 days post-infection) were used to infect H9c2 rat cardiomyoblasts overnight (16–18 h) at MOI 1. After washing with PBS, cells were trypsinized and resuspended in DMEM at 2.3 × 10^4 cells/mL. Then, 65 μL per well was plated in 384-well plates and incubated for 24 h (37 °C, 5% CO2, >95% humidity). Subsequently, 7.5 μL of compound solution was added (final [DMSO] 0.4%). After 72 h of treatment, cells were fixed with 4% PFA and stained with Hoechst 33342 (4 μg/mL). Six images per well were acquired using the Operetta system (PerkinElmer) and analyzed with Columbus software to quantify infected cells (≥3 cytoplasmic parasite spots).

Another data set is described as follows: Kinetic solubility. The settings on record: 25 °C. Type of data set: physicochemical. The procedure: These conditions simulate stomach acidity, plasma neutrality, and intestinal basicity.
For the chemical stability experiment, the compounds were evaluated under the same conditions with an additional incubation at 37 °C for a period of 24 h. The analysis was performed using an analytical method developed and validated by high-performance liquid chromatography with UV detection (HPLC-UV). Compounds were quantified in different pH media by comparing the areas where the substances were completely soluble with those in the reaction media. The experiments were performed in a triplicate.
These conditions simulate stomach acidity, plasma neutrality, and intestinal basicity. […] For the chemical stability experiment, the compounds were evaluated under the same conditions with an additional incubation at 37°C for a period of 24 hours. The analysis was performed using an analytical method developed and validated by high-performance liquid chromatography with UV detection (HPLC-UV). Compounds were quantified in the different pH media by comparing the areas where the substances were completely soluble with those in the reaction media. The experiments were performed in triplicate.

Data set [3] can be described thus: Lipophilicity assay (LogD at pH 7.4), shake flask. The settings on record: pH 7.4, n-octanol/phosphate buffer. The format is physicochemical.
Protocol: For this assay, an aqueous phosphate buffer solution at pH 7.4, saturated with n-octanol, was prepared, along with an n-octanol solution saturated with the aqueous phase at pH 7.4. Both solutions were mechanically stirred (using a magnetic stir bar and a Corning magnetic stirrer) at room temperature for 24 h, followed by a 24-hour resting period to ensure complete phase separation. Different phase ratios were prepared from these solutions in the following aqueous phase/n-octanol ratios: 1:1, 1:10, 1:100, and 1:300, to ensure that the substances were evaluated under non-saturating conditions. Stock solutions of each compound were prepared in DMSO at a concentration of 20 mM. From these stock solutions, standard solutions at a concentration of 30 µM in phosphate buffer pH 7.4 were obtained and used in each partition system, performed in triplicate. To reach equilibrium, the vials containing the samples were shaken for 90 min at room temperature using a roller shaker (Basic First Lab Orbital).
The nature of data set [4]: Caco-2 permeability assay. The format is in vitro ADME. The settings on record: human, Caco-2; apical to basolateral, 0.1 mM, 120 min. The procedure:
(§1) Caco-2 cells (2.5 × 10^5) were cultured on 12 mm diameter filters with DMEM-PEST medium in an incubator at 37 °C and 10% CO2. Monolayer formation was monitored through transepithelial electrical resistance (TEER). […] The assay was conducted under orbital shaking at 37 °C. […] Compound quantification was performed using the HPLC-UV method, following the previously adjusted chromatographic conditions and parameters. At the end of the experiment, monolayer integrity was confirmed by measuring TEER.

Another data set has as its system Caco-2 cells. Nature of the data set: Caco-2 permeability assay. The format is in vitro ADME. The procedure: as §1
(Passage across Caco-2 layers is used to estimate intestinal permeability.)

A short description of data set [5]: Metabolic stability in mouse liver microsomes. The settings on record: for half-life at 1 μM: CD-1, pH 7.4, mouse liver microsomes, 0.25 mg/mL, read-out: T1/2 - mouse; for parent compound remaining: mouse microsomes. Type of data set: in vitro ADME. Here is the method:
(§2) The in vitro metabolic stability of the compound was evaluated in pooled human liver microsomes (HLM, 20 mg/mL), Sprague-Dawley rat liver microsomes (RLM, 20 mg/mL), and CD-1 mouse liver microsomes (MLM, 20 mg/mL), all purchased from GIBCO (Thermo Fisher Scientific). NADPH regenerating system (GentestTM) was prepared in potassium phosphate buffer (100 mM, pH 7.4). […] The reaction was stopped by adding acetonitrile, followed by vortex homogenization, sonication for 5 min, and centrifugation at 10,000 g for 5 min at 4 °C. The supernatants were transferred to glass vials for LC-MS/MS analysis. The half-life was estimated based on the area under the curve (AUC) through regression analysis of the concentration decay over time. This calculation was performed using the following formula: t1/2=LN2/Kel
(§3) Where LN is the neperian logarithm, and K is the slope of the regression of the LN of AUC as a function of time. Then, the microsomal intrinsic clearance (CLint, mic) was calculated using the following equation: CLint.mic=LN2/t1/2 x VI/PM
(§4) Where V is the incubation volume (µL), and PM is the microsomal protein concentration (mg). This intrinsic clearance can be extrapolated to the whole liver (CLint,hep) using the following equation: CLint.hep=CLint.mic x ML x LB
(§5) ML is the microsomal yield, and LB is the liver weight (g) per kilogram of body weight.
(§6) To ensure the linearity of the elimination phase and to avoid the influence of points outside the log-linear range, the points deviated from the expected first-order kinetic profile were excluded. The supernatants were analyzed by UPLC-Xevo-TQ-XS from Waters. Chromatographic separation was performed on an Acquity UPLC BEH C18 column (2.1 × 100 mm, 1.7 µm particle size), maintained at 40 °C. The mobile phases were (A) water with 0.1% formic acid and (B) acetonitrile with 0.1% formic acid. […] The total run time was 5 min.
On the technique in general: Liver microsomes are vesicles of endoplasmic reticulum, rich in cytochrome P450 enzymes.

The nature of data set [6]: Metabolic stability in rat liver microsomes. The conditions noted are these: for half-life at 1 μM / microsomal CLint at 1 μM: Sprague-Dawley, pH 7.4, rat liver microsomes; for half-life at 1 μM: 0.25 mg/mL, read-out: T1/2 rat; for microsomal CLint at 1 μM: read-out: CL int. mic.; for parent compound remaining: rat microsomes. The format is in vitro ADME. Here is the method:
as §2, §3, §4, §5, §6

The nature of another data set: Stability in HBSS buffer. The format is physicochemical. The settings on record: 37°C, 2 hours. Here is the method:
The compounds were evaluated for chemical stability in Hanks’ Balanced Salt Solution (HBSS) over a 2-hour incubation period at 37°C. Stock solutions prepared in DMSO were diluted in HBSS to the desired test concentration. Samples were collected at time zero and after 2 hours of incubation. The remaining concentration of each compound was quantified by HPLC-UV, with stability assessed by comparing the percentage of compound remaining after 2 hours relative to the initial concentration.

The mark [7] stands for this setting: across pH conditions (1.7, 7.4, 8.9).

The IC50 is the concentration that gives 50% inhibition. A high value points to lower potency. The logD is lipophilicity at a set pH, counting ionised and neutral species. A high value points to a more lipophilic compound. One may read the Papp as a coefficient for how fast a substance crosses the barrier. The EC50 is the concentration needed to bring the measured effect to its halfway point. A high value points to a less potent agent.

Chain of T. cruzi malic enzyme (TcME) (Q4DJ68 entry or part of it): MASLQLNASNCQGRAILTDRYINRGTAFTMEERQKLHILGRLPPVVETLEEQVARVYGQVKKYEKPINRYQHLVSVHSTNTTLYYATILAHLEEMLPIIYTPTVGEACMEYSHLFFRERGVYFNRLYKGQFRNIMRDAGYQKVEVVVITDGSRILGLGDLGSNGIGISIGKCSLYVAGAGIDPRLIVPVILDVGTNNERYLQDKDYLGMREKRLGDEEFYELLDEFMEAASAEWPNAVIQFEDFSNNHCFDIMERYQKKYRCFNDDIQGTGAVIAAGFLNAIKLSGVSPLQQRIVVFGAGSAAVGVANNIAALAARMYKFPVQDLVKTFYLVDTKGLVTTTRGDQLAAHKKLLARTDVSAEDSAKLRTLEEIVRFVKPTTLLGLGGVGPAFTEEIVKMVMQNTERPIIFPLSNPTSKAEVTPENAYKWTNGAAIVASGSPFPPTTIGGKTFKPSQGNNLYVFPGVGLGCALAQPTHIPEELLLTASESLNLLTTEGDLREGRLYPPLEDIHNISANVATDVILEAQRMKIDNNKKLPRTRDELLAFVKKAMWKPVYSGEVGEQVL

Regarding `CC(C)Oc1ccc(NS(=O)(=O)c2cccc(NC(=O)c3cnccn3)c2)cc1` [AC-M110, N-(3-(N-(4-isopropoxyphenyl)sulfamoyl)phenyl)pyrazine-2-carboxamide], the IC50 in data set [1] is 7000 nM. In addition, the SI in [2] came to 9092. Moreover, the Kinetic solubility in “Kinetic solubility” (acidic pH (1.7), 5 µM) was 65%; in “Kinetic solubility” (setting [7]), “above 60%”; in “Kinetic solubility” (basic pH (8.9), 5 µM), 74%; in the data set “Kinetic solubility” (neutral pH (7.4), 5 µM), 65%. The logD at 90 min in data set [3] came to 3. In addition, in [4], the Papp at 120 min, 0.1 mM turned out to be 20.7 ×10⁻⁶ cm/s. Moreover, the “Caco-2 permeability classification (in words)” value in the data set with Caco-2 cells is reported as “approaching high permeability classification”. Also, the microsomal CLint at 1 μM in data set [5] (CD-1, mouse, liver microsomes, pH 7.4, mouse liver microsomes, read-out: CL int. mic.) came to 339 µL/min/mg; in [6], 61 µL/min/mg. In addition, the half-life at 1 μM is 2 min in [5] and 9 min in [6]. In data set [5] (15 min), the parent compound remaining entry is “less than 1%”. Also, the CL int. hep. in [5] (mouse, extrapolated to the whole liver) is 1370 mL/min/kg. The “chemical stability in HBSS buffer (in words)” value in the data set “Stability in HBSS buffer” is given as “remained chemically stable”.

The compound `COc1ccc(NS(=O)(=O)c2cccc(NC(=O)c3cnccn3)c2)cc1` [AC-R008, N-(3-(N-(4-methoxyphenyl)sulfamoyl)phenyl)pyrazine-2-carboxamide] came in with an IC50 in data set [1] of 500 nM. This compound showed an SI in [2] of 108. In addition, the EC50 in data set [2] (Trypanosoma cruzi, H9c2, 72 h) is 920 nM; in [2], under 1000 nM. For the same compound, the Kinetic solubility in the data set “Kinetic solubility” (acidic pH (1.7), 5 µM) is 75%; in “Kinetic solubility” (setting [7]), “above 60%”; in the data set “Kinetic solubility” (basic pH (8.9), 5 µM), 75%; in “Kinetic solubility” (neutral pH (7.4), 5 µM), 75%. In addition, in data set [3], the logD at 90 min was 2.5. Also, the Papp at 120 min, 0.1 mM in data set [4] turned out to be 9.71 ×10⁻⁶ cm/s. The “Caco-2 permeability classification (in words)” value in the data set on Caco-2 cells is “near the lower limit for moderate permeability”. The figures for the half-life at 1 μM in data set [5] and in [6] were 3 min and 10 min, respectively. Besides, the parent compound remaining is recorded as 5% in data set [5] (5 min), “less than 1%” in [5] (15 min), 55% in data set [6] (5 min) and “about 1%” in data set [6] (60 min). Moreover, the microsomal CLint at 1 μM in data set [6] turned out to be 55 µL/min/mg. The “chemical stability in HBSS buffer (in words)” value in the data set “Stability in HBSS buffer” was “remained chemically stable”.
